Source: patent US20250340543A1, “GPR84 ANTAGONISTS AND USES THEREOF” (Liminal BioSciences Limited, priority 2021, published 2025)

Legend:
GPR84 [1] = molecular target: T1, GPR84 (Homo sapiens (Human), UniProt Q9NQS5); test: Gai biosensor BRET assay (GPR84-mediated activation of Gai, antagonist mode against agonist ZQ-16); format: cell-based; conditions: for IC50: HEK293 cells, 200 nmol/L GPR84 agonist ZQ-16, read-out: hGPR84 IC50; for inhibition at 25 µM: compound tested at 25 μM (concentration code G); for inhibition at 2 µM: compound tested at 2 μM (concentration code A); for inhibition at 10 µM: compound tested at 10 μM (concentration code D)
Method in brief: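 Transiently transfected HEK293 cells expressing GPR84, Gαi2-Rluc8, GFP10-Gγ2 and Gβ1, in Tyrode's buffer pH 7.5. Compounds pre-incubated 5 min at 37° C, then 200 nmol/L ZQ-16 for 5 min at room temperature; BRET² with coelenterazine 400A, ligand-promoted net BRET after background and vehicle subtraction.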
Target sequence in this assay (Q9NQS5 whole entry): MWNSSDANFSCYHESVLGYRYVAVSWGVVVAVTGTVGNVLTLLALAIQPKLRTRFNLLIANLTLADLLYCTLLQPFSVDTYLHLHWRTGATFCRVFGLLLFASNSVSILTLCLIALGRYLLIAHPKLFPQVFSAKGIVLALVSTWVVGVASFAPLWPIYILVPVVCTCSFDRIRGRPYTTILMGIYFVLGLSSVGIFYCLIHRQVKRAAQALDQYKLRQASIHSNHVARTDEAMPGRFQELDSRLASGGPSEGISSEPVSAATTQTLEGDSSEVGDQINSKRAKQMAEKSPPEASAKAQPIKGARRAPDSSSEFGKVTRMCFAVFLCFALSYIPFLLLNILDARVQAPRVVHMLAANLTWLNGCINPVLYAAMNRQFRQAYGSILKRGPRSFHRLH

neutrophils = test: Neutrophil migration assay (embelin as chemotactic agent, transwell, ATPlite readout); format: cell-based; conditions: for Human Neutrophil migration inhibition - fold potency to Control Compound: IC50 normalized to GPR84 antagonist Control Compound; for IC50: Neutrophil, human neutrophils, embelin as chemotactic agent, read-out: Human Neutrophil migration inhibition IC50
Protocol: Neutrophil migration assay. After isolation, neutrophils were resuspended in chemotaxis buffer (DMEM supplemented with 10 mM HEPES) at a concentration of 8.9×10^6 cells/ml. In a 96-well plate, 20 μl of compound solution in chemotaxis buffer is added to 180 μl of cell suspension. After incubation at 37° C. for 30 minutes, 75 μL of cell suspension is transferred in the upper chamber of a 5 μm pore size Corning HTS transwell. 235 μL of chemotaxis buffer containing the chemotactic agent (embelin) is added to the lower chamber of the transwell. After a 60-minute incubation time at 37° C. in 5% CO2, the upper chamber of the transwell is removed and the plate is centrifuged at 1500 rpm for 6 minutes. Supernatant is removed and cells resuspended in 100 ul of PBS. ATP content was assessed using ATPlite Luminescence Assay System® according to manufacturer instructions (Perkin Elmer, Buckinghamshire, UK). Briefly, 50 μL of ATPlite buffer and 50 μL of lysis solution is added to the lower chamber of the Transwells. After incubation at room temperature, in the dark with constant agitation for 5 minutes, 150 μL of cell lysate is transferred in a 96 wells white plate and incubated for 10 minutes in the dark. Luminescence is read on a TECAN plate reader, Infinite M1000 (Tecan, Morrisville, NC).
The compound numbers correspond to the compound numbers in Table 1. […] Normalization of the results takes the donor's variation into account.

[2] = tested on: mouse dextran sodium sulfate-induced chronic inflammatory bowel disease model; conditions: once-daily doses of 3 and 10 mg/kg, mouse DSS-induced chronic IBD model; cited from earlier work
GPR84 [3] = molecular target: T1, GPR84; conditions: literature (Wang et al. 2006); read-out: potency of GPR84 activation; cited from earlier work
Target sequence in this assay (Q9NQS5 whole entry, species assumed): as the sequence (Q9NQS5 whole entry) above

Compound | inhibition at 25 µM (GPR84 [1]) [%] | inhibition at 10 µM (GPR84 [1]) [%] | other results
Cc1cc(OCC2COCCO2)cc(=O)n1Cc1cccc(C#CC2CC2)c1 (stereo not drawn) [Compound I-2] | > 75 |  | IC50 (GPR84 [1]): < 5 µM; Human Neutrophil migration inhibition - fold potency to Control Compound (neutrophils): C (IC50≤0.5-fold relative to Control Compound); IC50 (neutrophils): > 3 µM
Cc1cc(OC[C@H]2COc3ccccc3O2)cc(=O)n1Cc1cccc(C#CC2CC2)c1 [Compound I-30] |  |  | inhibition at 2 µM (GPR84 [1]): 25 to 50%; Human Neutrophil migration inhibition - fold potency to Control Compound (neutrophils): C (IC50≤0.5-fold relative to Control Compound); IC50 (neutrophils): 1 to 3 µM
O=c1nc(OC[C@@H]2COCCO2)cc2n1CCc1cc(C#CC3CC3)ccc1-2 [GLPG1205] |  |  | disease activity index score [2]: reduced; neutrophil infiltration [2]: reduced
CCCCCCCCCCCC(=O)O [lauric acid] |  |  | EC50 (GPR84 [3]): 11 µM
Cc1cc(OCc2ncccn2)cc(=O)n1[C@H](C)c1ccc(C#CC2CC2)cc1 [Compound I-223] |  | > 75 | IC50 (GPR84 [1]): < 5 µM; Human Neutrophil migration inhibition - fold potency to Control Compound (neutrophils): B (IC50 of >0.5-≤1.0-fold relative to Control Compound); IC50 (neutrophils): ≤ 0.3 µM
Cc1cc(OCC2CCCOC2)cc(=O)n1[C@H](C)c1ccc(C#CC2CC2)cc1 (stereo partly drawn) [Compound I-222] |  | > 75 | IC50 (neutrophils): 1 to 3 µM
COc1cc(OCC2COc3cccnc3O2)cc(-c2ccc(-c3ccc(C)nc3)cc2C)n1 (stereo not drawn) [Compound I-64] |  |  | inhibition at 5 µM (GPR84 [1]; compound tested at 5 μM (concentration code C)): < 25%
CC(C)c1cc(OCC2COCCO2)cc(OCc2ccc(C#CC3CC3)cc2)n1 (stereo not drawn) [Compound I-55] | < 25 |  | 
CCc1cc(OCC2COCCO2)cc(OCc2ccc(C#CC3CC3)cc2)n1 (stereo not drawn) [Compound I-72] | < 25 |  | 
FC(F)(F)COc1ccc(-c2c(OCC3COCCO3)ncc3c2OCCO3)cc1 (stereo not drawn) [Compound I-159] | < 25 |  | 
Cc1cc(OCc2ncccn2)cc(=O)n1Cc1cccc(C#CCNc2ccccc2)c1 [Compound I-280] |  | < 25 | 
O=c1nc(OCC2COCCO2)cc(-c2ccc(OCC(F)(F)F)cn2)[nH]1 (stereo not drawn) [Compound I-102] | < 25 |  | 
Cc1cc(OCC(F)(F)F)ccc1-c1cncc(OC[C@H]2COCCO2)c1 [Compound I-32] |  | 25 to 50 | 
Cc1ccc(-c2ccc3c(c2)OCCn2c-3cc(OCC3COCCO3)nc2=O)cn1 (stereo not drawn) [Compound I-211] | 25 to 50 |  | IC50 (GPR84 [1]): 5 to 10 µM
Cc1cc(OC[C@H]2CCCCO2)cc(=O)n1[C@H](C)c1ccc(C#CC2CC2)cc1 [Compound I-145] |  | > 75 | 
COc1cc(OCC2COCCO2)cc(-c2cc(C#CC3CC3)ccc2C)n1 (stereo not drawn) [Compound I-70] | < 25 |  | 
O=C(CC1CCOCC1)N1CCc2cc(C#CC3CC3)ccc2C1 [Compound I-181] |  |  | IC50 (GPR84 [1]): > 25 µM; inhibition at 15 µM (GPR84 [1]; compound tested at 15 μM (concentration code F)): 25 to 50%
Cc1nc(OCC2COCCO2)cc(=O)n1Cc1ccc(C#CC2CC2)cc1 (stereo not drawn) [Compound I-34] | 25 to 50 |  | 
COc1cc(OCC2COc3ncccc3O2)cc(-c2ccc(-c3ccc(C)nc3)cc2C)n1 (stereo not drawn) [Compound I-57] |  |  | inhibition at 2 µM (GPR84 [1]): 25 to 50%
Cc1cc(OCc2cnn(C)c2)cc(=O)n1[C@H](C)c1ccc(C#CC2CC2)cc1 [Compound I-352] |  | > 75 | 

Compound | inhibition at 25 µM (GPR84 [1]) [%] | inhibition at 10 µM (GPR84 [1]) [%] | other results
Cc1cc(OC[C@H]2COCCO2)cc(=O)n1Cc1ccc(F)c(C#CC2CC2)c1 [Compound I-28] |  | < 25 | 
COc1cc(OCC2COCCO2)cc(-c2ccc(OCC(F)(F)F)cc2)c1C (stereo not drawn) [Compound I-157] | < 25 |  | 
Cc1cc(OCc2cnccn2)cc(=O)n1[C@H](C)c1ccc(C#CC2CC2)cc1 [Compound I-257] |  |  | IC50 (GPR84 [1]): < 5 µM; inhibition at 2 µM (GPR84 [1]): > 75%
Cc1ccc(-c2ccc3c(c2)CCN(C(=O)CC2CCCCO2)C3)cn1 (stereo not drawn) [Compound I-203] | 25 to 50 |  | 
Cc1cc(OCc2ncccn2)cc(=O)n1[C@H](C)c1ccc(C#N)cc1 [Compound I-243] |  | < 25 | 
Cc1ccc(-c2ccc3c(c2)CN(C(=O)CC2CCCCO2)C3)cn1 (stereo not drawn) [Compound I-197] | < 25 |  | 
Cc1cc(OCC2COCCO2)cc(=O)n1-c1cccc(C#CC2CC2)c1 (stereo not drawn) [Compound I-226] |  | 50 to 75 | 
Cc1cc(OCc2ncccn2)cc(=O)n1[C@H](C)c1ccc(C#CCNC(=O)OC(C)C)cc1 [Compound I-269] |  | < 25 | 
Cc1cc(C#CC2CC2)ccc1-c1cc(OCC2COCCO2)cc(Cl)n1 (stereo not drawn) [Compound I-108] | < 25 |  | 
Cc1cc(OCc2ncccn2)cc(=O)n1[C@@H](C)c1ccc(C#CC2CC2)cc1 [Compound I-236] |  | < 25 | 
Cc1ccc(-c2ccc(-c3cc(OCC4CCCCO4)ncn3)cc2)cn1 (stereo not drawn) [Compound I-124] |  |  | inhibition at 12.5 µM (GPR84 [1]; compound tested at 12.5 μM (concentration code E)): < 25%
COc1nc(OCC2COCCO2)cc(-c2ccc(OCC(F)(F)F)cn2)n1 (stereo not drawn) [Compound I-41] | < 25 |  | 
Cc1cc(OCc2cccnn2)cc(=O)n1C(C)c1ccc(C#CC2CC2)c(F)c1 (stereo not drawn) [Compound I-363] |  |  | IC50 (GPR84 [1]): < 5 µM; inhibition at 2 µM (GPR84 [1]): > 75%
Cc1cc(OCc2ncccc2F)cc(=O)n1C(C)c1ccc(C#CC2CC2)nc1 (stereo not drawn) [Compound I-327] |  | 50 to 75 | 
CC(c1ccc(NC(=O)C2CC2)cc1)n1ccc(OCc2ncccn2)cc1=O (stereo not drawn) [Compound I-255] |  | < 25 | 
Cc1cc(OCC2COCCO2)cc(=O)n1Cc1cccc(OCc2ccccn2)c1 (stereo not drawn) [Compound I-63] | < 25 |  | 
Cc1cc(OCc2ncccn2)cc(=O)n1C(C)c1ccc(C#CCNc2ccccc2)cc1 (stereo not drawn) [Compound I-312] |  | < 25 | 
Cc1cc(OCc2ncccn2)cc(=O)n1CCc1ccc(C#CC2CC2)cc1 [Compound I-238] |  | > 75 | 
Cc1cc(OCc2cccnc2Cl)cc(=O)n1[C@H](C)c1ccc(C#CC2CC2)cc1 [Compound I-305] |  | > 75 | 
Cc1cc(OCc2ncccn2)nc(=O)n1C(C)c1ccc(C#CC2CC2)cc1 (stereo not drawn) [Compound I-320] |  | 50 to 75 | 

Compound | inhibition at 25 µM (GPR84 [1]) [%] | inhibition at 10 µM (GPR84 [1]) [%] | other results
COc1nc(OCC2COCCO2)cc(-c2ccc(C#CC3CC3)cc2)n1 (stereo not drawn) [Compound I-29] | < 25 |  | 
CC(c1ccc(C#CC2CC2)cc1)n1c(Cl)cc(OCc2ncccn2)cc1=O (stereo not drawn) [Compound I-321] |  | > 75 | 
Cc1nc(OCc2ccc(C#CC3CC3)cc2C)cc(OCC2COCCO2)n1 (stereo not drawn) [Compound I-23] |  | < 25 | 
Cc1cc(OCc2ccccn2)ccc1-c1cc(OCC2COCCO2)cc(=O)[nH]1 (stereo not drawn) [Compound I-71] | < 25 |  | 
Cc1cc(OCc2ccccn2)ccc1-c1cc(OCC2COCCO2)n(C)c(=O)c1 (stereo not drawn) [Compound I-121] |  | < 25 | 
Cc1ccc(-c2ccc(-c3nccc(OCC4CCCCO4)n3)cc2)cn1 (stereo not drawn) [Compound I-133] | < 25 |  | 
CC[C@H](c1ccc(C#CC2CC2)cc1)n1c(C)cc(OCc2ncccn2)cc1=O [Compound I-317] |  | > 75 | 
COc1cnc(OCC2COCCO2)c(-c2ccc(OCC(F)(F)F)cc2)c1OC (stereo not drawn) [Compound I-131] | < 25 |  | 
Cc1cc(OCc2ccccn2)ccc1-c1cc(OCC2COCCO2)[nH]c(=O)c1 (stereo not drawn) [Compound I-120] |  | < 25 | 
Cc1cc(OCC2COCCO2)cc(=O)n1C(C)c1ccc(C#CC2CC2)cn1 (stereo not drawn) [Compound I-76] |  | < 25 | 
Cc1cc(OCC2Oc3ccccc3O2)cc(=O)n1[C@H](C)c1ccc(C#CC2CC2)cc1 [Compound I-230] |  | < 25 | 
CC#Cc1ccc([C@@H](C)n2c(C)cc(OCC3COCCO3)cc2=O)cc1 (stereo partly drawn) [Compound I-219] |  | 50 to 75 | 
Cc1cc(OCc2nccn2C)cc(=O)n1C(C)c1ccc(C#CC2CC2)c(F)c1 (stereo not drawn) [Compound I-361] |  |  | IC50 (GPR84 [1]): < 5 µM; inhibition at 2 µM (GPR84 [1]): > 75%
Cc1cc(C#CC2CC2)ccc1-c1cncc(OCC2CCCCO2)c1 (stereo not drawn) [Compound I-24] | 50 to 75 |  | 
CN(C)C(=O)c1cc(OCC2COCCO2)cc(-c2ccc(OCC(F)(F)F)cc2)c1 (stereo not drawn) [Compound I-162] | < 25 |  | 
Cn1c(-c2ccc(C#CC3CC3)cc2)cc(OCC2COCCO2)cc1=O (stereo not drawn) [Compound I-67] | < 25 |  | 
COc1cc(OCC2COCCO2)cc(-c2cc(C#CCNc3ccccc3)ccc2C)n1 (stereo not drawn) [Compound I-79] | < 25 |  | 
Cc1cc(OCc2ncccn2)cc(=O)n1C(C)C1CCN(c2ccc(C3CC3)cc2)CC1 (stereo not drawn) [Compound I-368] |  | < 25 | 
Cc1cc(C#CC2CC2)ccc1-c1cc(OCC2COCCO2)n(C)c(=O)n1 (stereo not drawn) [Compound I-126] | < 25 |  | 
O=C(CC1COCCO1)N1Cc2ccc(C#CC3CC3)cc2C1 (stereo not drawn) [Compound I-177] | < 25 |  | 
